Experimental data published in article PMC8718758, “Using Unnatural Protein Fusions to Engineer a Coenzyme Self-Sufficiency System for D-Phenyllactic Acid Biosynthesis in Escherichia coli” (Frontiers in Bioengineering and Biotechnology, 2021).

Molecular target: T1, LfD-LDH (Limosilactobacillus fermentum, UniProt A0ABF7R291)
T1 construct: gene LAF_0632; gene cloned BamHI/XhoI in pET28a, expressed in E. coli BL21(DE3) (strain CP101); gene primers only in supplement
Experiment: enzymatic conversion of phenylpyruvate to D-phenyllactic acid
Type: biochemical
Details: co-substrate phenylpyruvate, pH 7, 35 °C; paper says only D-LDH here, LfD-LDH inferred; enzyme purity not described

T1 sequence (A0ABF7R291 1-332): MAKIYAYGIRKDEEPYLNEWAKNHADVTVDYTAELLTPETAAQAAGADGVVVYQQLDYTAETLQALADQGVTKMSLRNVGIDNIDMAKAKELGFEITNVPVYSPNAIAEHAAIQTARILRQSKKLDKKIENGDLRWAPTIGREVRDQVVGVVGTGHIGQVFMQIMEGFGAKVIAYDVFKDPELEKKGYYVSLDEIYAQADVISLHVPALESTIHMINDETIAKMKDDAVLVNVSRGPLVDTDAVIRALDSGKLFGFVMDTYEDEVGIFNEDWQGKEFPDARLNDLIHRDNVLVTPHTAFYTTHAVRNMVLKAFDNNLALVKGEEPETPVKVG

NC(=O)C1=CN([C@@H]2O[C@H](COP(=O)(O)OP(=O)(O)OC[C@H]3O[C@@H](n4cnc5c(N)ncnc54)[C@H](O)[C@@H]3O)[C@@H](O)[C@H]2O)C=CC1 [NADH]
enzymatic conversion of phenylpyruvate to D-phenyllactic acid: NADH-dependent D-LDH must rely on NADH to catalyze the conversion of PPA to D-PLA
